# Reference: patent publication US10793559B2, “Chemical compounds” (GlaxoSmithKline Intellectual Property Development Limited, priority 2016, dated 2020)
# Where “and” joins values, the source holds several entries; their conditions need not be identical. Equal values may be shown once. Where a name gives a salt, the structure may show the parent alone.
# Target: PI3K-Delta (Homo sapiens, UniProt O00329)
# Assay: PI3K HTRF assay (PI3K Delta)
# Format: biochemical
# Conditions: PI3K-Delta 1.5 nM, 80 μM ATP, 10 μM PIP2 final, read-out: mean pIC50 in the PI3K Delta assay (converted)
# Method: Biological Data PI3K HTRF Assay
# The binding of compounds to PI3K-alpha/beta/delta/gamma is determined by homogeneous time resolved fluorescence (HTRF) assays as follows;
# Briefly, solid compound is dissolved in 100% DMSO at a concentration of 2 mM. Dilutions are prepared in 100% DMSO using a 1 in 4 serial step dilution. The dilutions are transferred to black low volume Greiner assay plates ensuring that the DMSO concentration is constant across the plate at 1% (0.1 ul/well).
# PI3K Reaction Buffer (contains 50 mM HEPES pH7.0 (NaOH), 150 mM NaCl, 10 mM MgCl2, 2.3 mM sodium cholate, 10 μM CHAPS made up in milliQ water). Fresh DTT is added at a final concentration of 1 mM on the day of use. Wortmannin at a concentration sufficient to produce 100% inhibition (8.33e-6 M) is added to column 18 of compound plates.
# Enzyme solutions: 1× PI3K assay Buffer containing: • 550 pM PI3K-Alpha enzyme (275 pM final assay concentration) • 800 pM PI3K-Beta enzyme (400 pM final assay concentration) • 3 nM PI3K-Delta enzyme (1.5 nM final assay concentration) • 10 nM PI3K-Gamma enzyme (5 nM final assay concentration)
# These concentrations are optimal to achieve a signal:background of between 1.5-4.5. The enzyme solution is added to columns 1-24 (3 ul/well) and plates are incubated for 15 minutes at room temperature.
# Substrate solution: 1× PI3K assay buffer containing: • PI3K-Alpha: 500 μM ATP, 20 μM PIP2 and 120 nM biotin-PIP3. (Final assay concentrations are 250 μM ATP, 10 μM PIP2 (both at Km) and 40 nM biotin-PIP3) • PI3K-Beta: 800 μM ATP, 20 μM PIP2 and 120 nM biotin-PIP3. (Final assay concentrations are 400 μM ATP, 10 μM PIP2 (both at Km) and 40 nM biotin-PIP3) • PI3K-Delta: […], 20 μM PIP2 and 120 nM biotin-PIP3. (Final assay concentrations are 80 μM ATP, 10 μM PIP2 (both at Km) and 40 nM biotin-PIP3) • PI3K-Gamma: 30 μM ATP, 20 μM PIP2 and 120 nM biotin-PIP3.
# This is added to all wells and plates are incubated for 1 hour at room temperature.
# Detection solution: PI3K Detection Buffer (contains 50 mM HEPES pH7.0 (HCl), 150 mM NaCl, 2.3 mM sodium cholate, 10 μM CHAPS, 240 mM potassium fluoride) containing 2 mM DTT (2× final concentration), 90 nM GRP-1 PH domain, 300 nM Streptavidin-APC and 24 nM Europium-anti-GST (6× final concentrations)
# This is mixed left at room temperature (protected from light).
# STOP solution: PI3K STOP Buffer (contains 50 mM HEPES pH7.0 (HCl), 150 mM NaCl, 2.3 mM sodium cholate, 10 μM CHAPS, 150 mM EDTA).
# Detection solution is diluted 1:1 with STOP solution and added to all wells (3 ul/well). Plates are covered and incubated on the bench for 45-60 minutes. Plates are read on a PerkinElmer Envision, measuring TR-FRET between the complex formed between the GST-tagged PH domain and biotinylated PIP3 which both recruit fluorophores (Europium-labelled anti-GST & Strep-APC respectively). […], this complex is disrupted by the competitive action of non-biotinylated PIP3 (formed in the assay by the phosphorylation of PIP2 by the kinase & ATP). From this, the ratio of acceptor/donor was calculated (Aex=317 nm, Aem donor=615 nm, em acceptor=665 nm) and used for data analysis.
# Sequence of PI3K-Delta (O00329 whole entry): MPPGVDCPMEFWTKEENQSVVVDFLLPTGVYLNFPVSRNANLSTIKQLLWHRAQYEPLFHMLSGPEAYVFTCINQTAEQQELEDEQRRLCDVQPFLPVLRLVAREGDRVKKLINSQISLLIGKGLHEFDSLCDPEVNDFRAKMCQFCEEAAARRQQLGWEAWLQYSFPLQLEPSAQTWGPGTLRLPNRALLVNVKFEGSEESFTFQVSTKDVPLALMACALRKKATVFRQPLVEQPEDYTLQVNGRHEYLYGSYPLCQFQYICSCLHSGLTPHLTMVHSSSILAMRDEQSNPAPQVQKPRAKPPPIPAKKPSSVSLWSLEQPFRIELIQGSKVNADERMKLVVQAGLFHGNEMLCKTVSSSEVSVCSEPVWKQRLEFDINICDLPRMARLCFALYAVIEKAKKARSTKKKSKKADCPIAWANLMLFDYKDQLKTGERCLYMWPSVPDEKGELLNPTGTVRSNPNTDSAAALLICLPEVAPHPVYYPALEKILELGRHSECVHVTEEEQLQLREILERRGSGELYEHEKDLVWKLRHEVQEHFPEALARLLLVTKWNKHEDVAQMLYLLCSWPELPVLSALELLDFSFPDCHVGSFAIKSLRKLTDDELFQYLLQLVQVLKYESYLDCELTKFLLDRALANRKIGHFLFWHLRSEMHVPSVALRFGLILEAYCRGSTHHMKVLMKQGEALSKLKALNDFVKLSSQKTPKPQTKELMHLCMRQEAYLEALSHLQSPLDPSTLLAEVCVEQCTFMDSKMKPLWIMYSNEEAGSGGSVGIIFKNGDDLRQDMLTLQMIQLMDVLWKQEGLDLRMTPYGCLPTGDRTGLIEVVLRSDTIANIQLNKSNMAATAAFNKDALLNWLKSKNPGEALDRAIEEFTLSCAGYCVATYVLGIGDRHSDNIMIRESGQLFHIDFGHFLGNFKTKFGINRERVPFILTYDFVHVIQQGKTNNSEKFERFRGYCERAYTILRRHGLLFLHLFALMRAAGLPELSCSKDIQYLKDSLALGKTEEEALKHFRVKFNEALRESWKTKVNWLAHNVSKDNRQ
# Sequence of PI3K-Delta (P27986 whole entry partner): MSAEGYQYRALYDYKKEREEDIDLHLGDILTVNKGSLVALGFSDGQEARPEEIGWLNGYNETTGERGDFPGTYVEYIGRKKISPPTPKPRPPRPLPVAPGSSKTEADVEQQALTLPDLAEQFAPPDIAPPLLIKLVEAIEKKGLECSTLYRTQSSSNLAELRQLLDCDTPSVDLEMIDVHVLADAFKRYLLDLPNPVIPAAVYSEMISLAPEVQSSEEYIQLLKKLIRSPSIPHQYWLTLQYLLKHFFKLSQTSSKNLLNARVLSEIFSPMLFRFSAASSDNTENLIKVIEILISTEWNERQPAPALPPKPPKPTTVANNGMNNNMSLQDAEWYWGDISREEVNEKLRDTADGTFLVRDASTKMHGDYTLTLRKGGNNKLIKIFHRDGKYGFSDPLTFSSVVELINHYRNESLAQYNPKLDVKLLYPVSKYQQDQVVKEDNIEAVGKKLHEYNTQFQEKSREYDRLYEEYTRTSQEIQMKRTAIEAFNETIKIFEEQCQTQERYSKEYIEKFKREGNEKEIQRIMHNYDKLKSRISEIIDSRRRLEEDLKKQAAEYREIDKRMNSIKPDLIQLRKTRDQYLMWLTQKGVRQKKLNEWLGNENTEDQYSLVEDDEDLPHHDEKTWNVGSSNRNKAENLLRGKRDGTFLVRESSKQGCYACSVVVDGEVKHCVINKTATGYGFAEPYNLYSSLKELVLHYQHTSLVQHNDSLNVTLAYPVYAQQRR
row,IC50,SMILES
1,≤ 3.16 nM,"COc1ncc(N2CCOCC2)cc1S(=O)(=O)Nc1ccnc(-c2ccc(CN3C[C@@H](C)O[C@@H](C)C3)cc2)c1 [Example 23, N-(2-(4-(((cis)-2,6-Dimethylmorpholino)methyl)phenyl)pyridin-4-yl)-2-methoxy-5-morpholinopyridine-3-sulfonamide]"
2,≤ 3.16 nM,"CC(C)N1CCN(Cc2ccc(-c3cc(NS(=O)(=O)c4cc(N5CCOCC5)cnc4N(C)C)ccn3)c(F)c2)CC1 [Example 26, 2-(Dimethylamino)-N-(2-(2-fluoro-4-((4-isopropylpiperazin-1-yl)methyl)phenyl)pyridin-4-yl)-5-morpholinopyridine-3-sulfonamide]"
3,≤ 3.16 nM,COc1ncc(N2CCOCC2)cc1S(=O)(=O)Nc1ccnc(-c2ccc(CN3CCC(C(C)(C)O)CC3)cc2F)c1 [Example 22]
4,≤ 3.16 nM,"COc1ncc(N2CCOCC2)cc1S(=O)(=O)Nc1ccnc(-c2ccc(CN3CCCCC3)cc2F)c1 [Example 21, N-(2-(2-fluoro-4-(piperidin-1-ylmethyl)phenyl)pyridin-4-yl)-2-methoxy-5-morpholinopyridine-3-sulfonamide]"
5,≤ 3.16 nM,"COc1ncc(N2CCOCC2)cc1S(=O)(=O)Nc1ccnc(-c2ccc(CN3CCOCC3)cc2)c1 [Example 24, 2-Methoxy-5-morpholino-N-(2-(4-(morpholinomethyl)phenyl)pyridin-4-yl)pyridine-3-sulfonamide]"
6,≤ 3.16 nM,"CCOc1ncc(N2CCOCC2)cc1S(=O)(=O)Nc1ccnc(-c2ccc(CN3C[C@@H](C)O[C@@H](C)C3)cc2F)c1 [Example 37, Rac-N-(2-(4-(((2S,6R)-2,6-dimethylmorpholino)methyl)-2-fluorophenyl)pyridin-4-yl)-2-ethoxy-5-morpholinopyridine-3-sulfonamide]"
7,≤ 3.16 nM,"COc1ncc(N2CCOCC2)cc1S(=O)(=O)Nc1ccnc(-c2cc(Cl)c(CN3CCN(C(C)C)CC3)cc2F)c1 [Example 35, N-(2-(5-Chloro-2-fluoro-4-((4-isopropylpiperazin-1-yl)methyl)phenyl)pyridin-4-yl)-2-methoxy-5-morpholinopyridine-3-sulfonamide]"
8,≤ 3.16 nM,"COc1ncc(N2CCOCC2)cc1S(=O)(=O)Nc1ccnc(-c2ccc(CN3C[C@@H](C)O[C@@H](C)C3)cc2F)c1 [Example 36, Rac-N-(2-(4-(((2S,6R)-2,6-dimethylmorpholino)methyl)-2-fluorophenyl)pyridin-4-yl)-2-methoxy-5-morpholinopyridine-3-sulfonamide]"
9,≤ 3.16 nM,"COc1ncc(N2CCOCC2)cc1S(=O)(=O)Nc1ccnc(-c2ccc(CN3CCNCC3)cc2F)c1 [Example 25, N-(2-(2-Fluoro-4-(piperazin-1-ylmethyl)phenyl)pyridin-4-yl)-2-methoxy-5-morpholinopyridine-3-sulfonamide]"
10,≤ 3.16 nM,"CN(C)c1ncc(N2CCOCC2)cc1S(=O)(=O)Nc1ccnc(-c2ccc(CN3CCN(C(C)(C)C)CC3)cc2F)c1 [Example 27, N-(2-(4-((4-(tert-Butyl)piperazin-1-yl)methyl)-2-fluorophenyl)pyridin-4-yl)-2-(dimethylamino)-5-morpholinopyridine-3-sulfonamide]"

# The next lines start with the compound.
row,SMILES,IC50
1,"COc1ncc(N2CCOCC2)cc1S(=O)(=O)Nc1ccnc(-c2ccc(CN3CCN(C4CCC4)CC3)cc2F)c1 [Example 16, N-(2-(4-((4-Cyclobutylpiperazin-1-yl)methyl)-2-fluorophenyppyridin-4-yl)-2-methoxy-5-morpholinopyridine-3-sulfonamide, 2.5 formic acid salt]",≤ 3.16 nM
2,CCC(C)N1CCN(Cc2ccc(-c3cc(NS(=O)(=O)c4cc(N5CCOCC5)cnc4OC)ccn3)cc2)CC1 (stereo not shown) [Example 9],≤ 3.16 nM
3,"COc1ncc(N2CCOCC2)cc1S(=O)(=O)Nc1ccnc(-c2ccc(CN3CCN(C(C)C)CC3)c(F)c2)c1 [Example 5, N-(2-(3-Fluoro-4-((4-isopropylpiperazin-1-yl)methyl)phenyl)pyridin-4-yl)-2-methoxy-5-morpholinopyridine-3-sulfonamide]",≤ 3.16 nM
4,"COc1ncc(N2CCOCC2)cc1S(=O)(=O)Nc1ccnc(-c2cc(F)c(CN3CCN(C(C)C)CC3)cc2F)c1 [Example 17, N-(2-(2,5-Difluoro-4-((4-isopropylpiperazin-1-yl)methyl)phenyl)pyridin-4-yl)-2-methoxy-5-morpholinopyridine-3-sulfonamide]",≤ 3.16 nM
5,"COc1ncc(N2CCOCC2)cc1S(=O)(=O)Nc1ccnc(-c2ccc(CN3CCN(C(C)(C)C)CC3)cc2)c1 [Example 6, N-(2-(4-((4-(tert-Butyl)piperazin-1-yl)methyl)phenyl)pyridin-4-yl)-2-methoxy-5-morpholinopyridine-3-sulfonamide]",≤ 3.16 nM
6,"COc1ncc(N2CCOCC2)cc1S(=O)(=O)Nc1ccnc(-c2ccc(CN3CCN(C(C)C)CC3)cc2F)c1 [Example 1, N-(2-(2-Fluoro-4-((4-isopropylpiperazin-1-yl)methyl)phenyl)pyridin-4-yl)-2-methoxy-5-morpholinopyridine-3-sulfonamide]",1 nM and ≤ 3.16 nM
7,COc1ncc(N2CCOCC2)cc1S(=O)(=O)Nc1ccnc(-c2ccc(CN3CCN(C4CCC4)CC3)cc2)c1 [Example 7],≤ 3.16 nM
8,"COc1ncc(N2CCOCC2)cc1S(=O)(=O)Nc1ccnc(-c2ccc(CN3CCN(C4COC4)CC3)cc2F)c1 [Example 15, N-(2-(2-Fluoro-4-((4-(oxetan-3-yl)piperazin-1-yl)methyl)phenyl)pyridin-4-yl)-2-methoxy-5-morpholinopyridine-3-sulfonamide, 3 formic acid salt]",≤ 3.16 nM
9,"COc1ncc(N2CCOCC2)cc1S(=O)(=O)Nc1ccnc(-c2cc(F)c(CN3CCN(C(C)C)CC3)c(F)c2)c1 [Example 12, N-(2-(3,5-Difluoro-4-((4-isopropylpiperazin-1-yl)methyl)phenyl)pyridin-4-yl)-2-methoxy-5-morpholinopyridine-3-sulfonamide]",≤ 3.16 nM
10,COc1ncc(N2CCOCC2)cc1S(=O)(=O)Nc1ccnc(-c2ccc(CN3CCN(C4COC4)CC3)cc2)c1 [Example 13],≤ 3.16 nM
11,"COCCN1CCN(Cc2ccc(-c3cc(NS(=O)(=O)c4cc(N5CCOCC5)cnc4OC)ccn3)c(F)c2)CC1 [Example 18, N-(2-(2-Fluoro-4-((4-(2-methoxyethyl)piperazin-1-yl)methyl)phenyl)pyridin-4-yl)-2-methoxy-5-morpholinopyridine-3-sulfonamide, 1.2 formic acid salt]",≤ 3.16 nM
12,"COc1ncc(N2CCOCC2)cc1S(=O)(=O)Nc1ccnc(-c2c(F)cc(CN3CCN(C(C)C)CC3)cc2F)c1 [Example 8, N-(2-(2,6-Difluoro-4-((4-isopropylpiperazin-1-yl)methyl)phenyl)pyridin-4-yl)-2-methoxy-5-morpholinopyridine-3-sulfonamide]",≤ 3.16 nM
13,"COc1ncc(N2CCOCC2)cc1S(=O)(=O)Nc1ccnc(-c2ccc(CN3CCN(C(C)(C)C)CC3)cc2F)c1 [Example 2, N-(2-(4-((4-(tert-Butyl)piperazin-1-yl)methyl)-2-fluorophenyl)pyridin-4-yl)-2-methoxy-5-morpholinopyridine-3-sulfonamide]",≤ 3.16 nM
14,"COc1ncc(N2CCOCC2)cc1S(=O)(=O)Nc1ccnc(-c2ccc(CN3CCN(C(C)C)CC3)c(F)c2F)c1 [Example 14, N-(2-(2,3-Difluoro-4-((4-isopropylpiperazin-1-yl)methyl)phenyl)pyridin-4-yl)-2-methoxy-5-morpholinopyridine-3-sulfonamide]",≤ 3.16 nM
15,"COc1ncc(N2CCOCC2)cc1S(=O)(=O)Nc1ccnc(-c2ccc(CN3CCN(C(C)C)CC3)cc2)c1 [Example 3, N-(2-(4-((4-Isopropylpiperazin-1-yl)methyl)phenyl)pyridin-4-yl)-2-methoxy-5-morpholinopyridine-3-sulfonamide]",≤ 3.16 nM
